Tests used:
Cytochrome P450 2C9 = Cytochrome P450 2C9 (Homo sapiens, UniProt P11712); test: Inhibition of CYP2C9 in human liver microsomes using diclofenac as substrate after 15 mins in presence of NADPH by LC/MS/MS analysis; type: ADME
[1] = target: D(3) dopamine receptor (Homo sapiens) (UniProt P35462); test: Inhibition of human dopamine D3 receptor at 10 uM relative to control
[2] = target: B2 bradykinin receptor (Homo sapiens) (UniProt P30411); test: Inhibition of human bradykinin B2 receptor at 10 uM relative to control
Rattus norvegicus [3] = organism: Rattus norvegicus; test: Inhibition of rat P2Y receptor at 10 uM relative to control
[4] = target: Interleukin-1 receptor type 1 (Mus musculus) (UniProt P13504); test: Inhibition of mouse IL1 receptor at 10 uM relative to control
[5] = target: 5-hydroxytryptamine receptor 3A (Homo sapiens) (UniProt P46098); test: Inhibition of human 5-HT3 receptor at 10 uM relative to control
[6] = Fraction unbound in human plasma at 5 uM after 4 hrs by equilibrium dialysis based LC/MS/MS analysis; type: ADME, cell-free
[7] = target: 5-hydroxytryptamine receptor 2B (Homo sapiens) (UniProt P41595); test: Inhibition of human 5-HT2B receptor at 10 uM relative to control
Homo sapiens = organism: Homo sapiens; test: Inhibition of human dopamine D4.2 receptor at 10 uM relative to control
Rattus norvegicus [8] = organism: Rattus norvegicus; test: Inhibition of rat kainate glutamate receptor at 10 uM relative to control
[9] = Drug uptake in Harlan CD-1 mouse brain at 3 mg/kg, ip by LC/MS-MS analysis; type: ADME, organism-based; conditions: in vivo, read-out: Drug uptake
[10] = target: Beta-1 adrenergic receptor (Homo sapiens) (UniProt P08588); test: Inhibition of human adrenergic beta1 receptor at 10 uM relative to control
[11] = target: Muscarinic acetylcholine receptor M3 (Homo sapiens) (UniProt P20309); test: Inhibition of human muscarinic M3 receptor at 10 uM relative to control
[12] = target: Muscarinic acetylcholine receptor M1 (Homo sapiens) (UniProt P11229); test: Inhibition of human muscarinic M1 receptor at 10 uM relative to control
[13] = target: Adenosine receptor A2a (Homo sapiens) (UniProt P29274); test: Inhibition of human adenosine A2a receptor at 10 uM relative to control
Rattus norvegicus [14] = organism: Rattus norvegicus; test: Inhibition of central rat I2 receptor imidazoline binding site at 10 uM relative to control

Chain of Beta-1 adrenergic receptor (Homo sapiens) (P08588 whole entry, looked up): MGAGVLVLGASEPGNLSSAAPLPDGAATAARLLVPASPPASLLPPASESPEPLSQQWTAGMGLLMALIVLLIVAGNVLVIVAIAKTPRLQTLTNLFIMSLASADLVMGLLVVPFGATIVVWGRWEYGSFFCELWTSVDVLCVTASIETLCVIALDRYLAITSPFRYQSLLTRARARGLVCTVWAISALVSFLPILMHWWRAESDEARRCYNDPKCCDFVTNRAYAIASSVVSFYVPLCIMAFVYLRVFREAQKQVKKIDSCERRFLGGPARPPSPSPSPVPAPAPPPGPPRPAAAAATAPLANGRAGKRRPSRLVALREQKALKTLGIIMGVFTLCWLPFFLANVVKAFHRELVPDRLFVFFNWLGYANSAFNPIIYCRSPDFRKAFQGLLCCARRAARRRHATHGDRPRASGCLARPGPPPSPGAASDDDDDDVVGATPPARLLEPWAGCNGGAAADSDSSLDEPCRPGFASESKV
Chain of Interleukin-1 receptor type 1 (Mus musculus) (P13504 whole entry): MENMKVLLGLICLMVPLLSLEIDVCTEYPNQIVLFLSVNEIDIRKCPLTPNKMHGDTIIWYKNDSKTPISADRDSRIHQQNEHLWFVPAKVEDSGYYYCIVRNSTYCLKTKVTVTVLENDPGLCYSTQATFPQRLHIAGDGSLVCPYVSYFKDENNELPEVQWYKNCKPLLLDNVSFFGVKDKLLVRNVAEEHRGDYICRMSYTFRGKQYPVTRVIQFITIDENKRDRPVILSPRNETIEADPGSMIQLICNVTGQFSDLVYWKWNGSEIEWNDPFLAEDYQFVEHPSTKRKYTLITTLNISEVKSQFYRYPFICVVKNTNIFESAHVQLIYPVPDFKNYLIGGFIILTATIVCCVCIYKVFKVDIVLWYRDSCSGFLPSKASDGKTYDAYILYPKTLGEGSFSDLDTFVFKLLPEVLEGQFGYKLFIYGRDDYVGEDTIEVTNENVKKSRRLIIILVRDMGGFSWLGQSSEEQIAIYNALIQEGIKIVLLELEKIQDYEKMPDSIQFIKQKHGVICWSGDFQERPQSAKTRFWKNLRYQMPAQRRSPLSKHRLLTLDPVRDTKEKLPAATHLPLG
Chain of Cytochrome P450 2C9 (P11712 whole entry): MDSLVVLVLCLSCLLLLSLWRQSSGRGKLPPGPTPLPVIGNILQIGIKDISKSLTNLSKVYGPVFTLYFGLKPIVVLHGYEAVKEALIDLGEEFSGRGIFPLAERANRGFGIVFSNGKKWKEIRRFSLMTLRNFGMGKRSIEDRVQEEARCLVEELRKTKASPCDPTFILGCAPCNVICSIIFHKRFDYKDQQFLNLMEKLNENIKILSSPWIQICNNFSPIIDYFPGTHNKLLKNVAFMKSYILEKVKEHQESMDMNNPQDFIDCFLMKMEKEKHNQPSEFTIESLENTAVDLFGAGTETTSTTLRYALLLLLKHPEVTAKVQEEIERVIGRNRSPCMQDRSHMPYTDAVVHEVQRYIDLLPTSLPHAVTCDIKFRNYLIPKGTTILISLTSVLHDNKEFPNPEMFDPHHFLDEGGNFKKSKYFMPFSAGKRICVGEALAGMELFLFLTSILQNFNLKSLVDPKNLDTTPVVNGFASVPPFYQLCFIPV
Chain of B2 bradykinin receptor (Homo sapiens) (P30411 whole entry): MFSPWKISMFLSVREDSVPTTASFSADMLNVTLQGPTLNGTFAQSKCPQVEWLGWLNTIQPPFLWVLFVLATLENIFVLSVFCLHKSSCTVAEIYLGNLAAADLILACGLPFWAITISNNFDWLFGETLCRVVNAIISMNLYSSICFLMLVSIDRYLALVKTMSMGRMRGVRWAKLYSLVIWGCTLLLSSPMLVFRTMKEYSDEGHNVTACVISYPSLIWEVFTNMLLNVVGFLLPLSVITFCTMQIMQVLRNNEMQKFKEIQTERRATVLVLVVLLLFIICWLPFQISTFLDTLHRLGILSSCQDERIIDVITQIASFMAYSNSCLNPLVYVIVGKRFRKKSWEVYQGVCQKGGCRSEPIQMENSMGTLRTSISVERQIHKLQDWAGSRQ
Chain of 5-hydroxytryptamine receptor 2B (Homo sapiens) (P41595 whole entry): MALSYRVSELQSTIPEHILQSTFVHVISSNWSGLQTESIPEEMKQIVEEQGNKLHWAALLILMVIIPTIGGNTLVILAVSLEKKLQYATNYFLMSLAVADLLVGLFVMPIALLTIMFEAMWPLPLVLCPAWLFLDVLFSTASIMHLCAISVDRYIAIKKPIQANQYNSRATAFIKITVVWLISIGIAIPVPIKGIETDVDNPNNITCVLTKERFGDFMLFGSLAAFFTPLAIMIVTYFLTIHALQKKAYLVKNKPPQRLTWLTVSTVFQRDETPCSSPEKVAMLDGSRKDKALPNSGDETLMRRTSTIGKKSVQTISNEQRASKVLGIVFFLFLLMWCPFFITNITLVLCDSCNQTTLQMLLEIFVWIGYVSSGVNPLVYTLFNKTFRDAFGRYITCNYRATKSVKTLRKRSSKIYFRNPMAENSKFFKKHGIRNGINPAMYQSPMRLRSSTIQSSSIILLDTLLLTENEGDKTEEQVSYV
Chain of 5-hydroxytryptamine receptor 3A (Homo sapiens) (P46098 whole entry): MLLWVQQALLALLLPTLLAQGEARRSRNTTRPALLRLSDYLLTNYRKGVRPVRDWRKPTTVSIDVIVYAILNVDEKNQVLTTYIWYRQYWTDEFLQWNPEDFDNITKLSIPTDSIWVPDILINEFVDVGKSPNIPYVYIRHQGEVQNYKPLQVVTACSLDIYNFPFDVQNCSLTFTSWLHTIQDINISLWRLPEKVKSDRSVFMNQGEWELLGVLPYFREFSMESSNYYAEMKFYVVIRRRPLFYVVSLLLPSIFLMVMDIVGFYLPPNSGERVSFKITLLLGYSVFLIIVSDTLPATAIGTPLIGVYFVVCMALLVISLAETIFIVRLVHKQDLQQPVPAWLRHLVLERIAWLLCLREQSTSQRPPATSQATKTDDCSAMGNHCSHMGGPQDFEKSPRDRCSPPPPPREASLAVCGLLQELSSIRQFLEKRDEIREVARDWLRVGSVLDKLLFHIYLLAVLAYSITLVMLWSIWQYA
Chain of Adenosine receptor A2a (Homo sapiens) (P29274 whole entry): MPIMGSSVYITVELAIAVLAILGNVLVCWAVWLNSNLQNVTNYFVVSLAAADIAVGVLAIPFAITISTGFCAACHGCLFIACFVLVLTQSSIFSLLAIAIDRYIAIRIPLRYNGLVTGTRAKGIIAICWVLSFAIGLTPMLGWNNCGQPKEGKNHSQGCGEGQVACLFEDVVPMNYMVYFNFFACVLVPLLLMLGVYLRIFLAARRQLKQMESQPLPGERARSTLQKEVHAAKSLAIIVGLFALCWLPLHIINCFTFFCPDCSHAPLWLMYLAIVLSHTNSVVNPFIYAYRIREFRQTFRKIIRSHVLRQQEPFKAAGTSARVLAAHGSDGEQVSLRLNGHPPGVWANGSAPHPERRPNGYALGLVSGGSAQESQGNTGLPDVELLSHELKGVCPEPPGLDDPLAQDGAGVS
Chain of D(3) dopamine receptor (Homo sapiens) (P35462 whole entry): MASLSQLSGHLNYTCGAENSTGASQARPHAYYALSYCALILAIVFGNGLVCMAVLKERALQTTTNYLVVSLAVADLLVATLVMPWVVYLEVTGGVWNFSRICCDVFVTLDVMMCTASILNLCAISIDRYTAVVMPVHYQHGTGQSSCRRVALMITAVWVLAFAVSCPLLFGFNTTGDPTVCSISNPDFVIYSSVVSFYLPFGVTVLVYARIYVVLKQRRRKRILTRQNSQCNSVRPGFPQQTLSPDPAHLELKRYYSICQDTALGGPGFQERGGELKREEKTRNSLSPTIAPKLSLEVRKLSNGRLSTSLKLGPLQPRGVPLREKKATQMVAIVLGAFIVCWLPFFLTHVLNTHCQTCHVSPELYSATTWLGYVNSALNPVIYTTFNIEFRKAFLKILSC
Chain of Muscarinic acetylcholine receptor M3 (Homo sapiens) (P20309 whole entry, looked up): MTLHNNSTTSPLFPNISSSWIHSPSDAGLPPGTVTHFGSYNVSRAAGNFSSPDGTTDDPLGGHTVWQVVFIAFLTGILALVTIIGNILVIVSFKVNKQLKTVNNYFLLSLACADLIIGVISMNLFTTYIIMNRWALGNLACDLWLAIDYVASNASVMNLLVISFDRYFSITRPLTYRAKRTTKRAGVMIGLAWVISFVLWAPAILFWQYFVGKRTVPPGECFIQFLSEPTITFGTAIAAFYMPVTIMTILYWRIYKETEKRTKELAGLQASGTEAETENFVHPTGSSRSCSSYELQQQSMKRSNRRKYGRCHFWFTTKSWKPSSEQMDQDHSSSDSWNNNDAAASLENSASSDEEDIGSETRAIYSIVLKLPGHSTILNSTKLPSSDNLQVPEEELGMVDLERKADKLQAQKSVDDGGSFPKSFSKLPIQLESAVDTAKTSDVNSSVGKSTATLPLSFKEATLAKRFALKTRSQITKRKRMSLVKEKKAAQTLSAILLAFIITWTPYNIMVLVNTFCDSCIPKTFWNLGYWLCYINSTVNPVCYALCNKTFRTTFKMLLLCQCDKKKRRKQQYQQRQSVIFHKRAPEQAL
Chain of Muscarinic acetylcholine receptor M1 (Homo sapiens) (P11229 whole entry): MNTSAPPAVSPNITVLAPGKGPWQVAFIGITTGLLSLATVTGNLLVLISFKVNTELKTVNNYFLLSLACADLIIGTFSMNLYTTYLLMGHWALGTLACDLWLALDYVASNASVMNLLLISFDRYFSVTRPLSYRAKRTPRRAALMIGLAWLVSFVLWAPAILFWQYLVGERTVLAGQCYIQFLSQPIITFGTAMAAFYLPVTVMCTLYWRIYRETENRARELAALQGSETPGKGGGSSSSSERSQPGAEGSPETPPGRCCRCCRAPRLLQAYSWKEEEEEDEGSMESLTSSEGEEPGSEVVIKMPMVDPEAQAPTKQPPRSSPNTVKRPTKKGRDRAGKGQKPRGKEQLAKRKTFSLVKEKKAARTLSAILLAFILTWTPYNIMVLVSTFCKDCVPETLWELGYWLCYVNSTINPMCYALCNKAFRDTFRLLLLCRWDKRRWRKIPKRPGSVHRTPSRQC

C[C@@H](COc1ccn(-c2ccc(F)cc2)c(=O)c1)Oc1ccccc1
1200 nM: concentration [9]
0.18: fraction unbound at 4 h, 5 µM [6]
> 30 µM: IC50 (Cytochrome P450 2C9)
> 50%: inhibition [1] | inhibition [2] | inhibition (Rattus norvegicus [3]) | inhibition [4] | inhibition [5] | inhibition [7] | inhibition (Homo sapiens) | inhibition (Rattus norvegicus [8]) | inhibition [10] | inhibition [11] | inhibition [12] | inhibition [13] | inhibition (Rattus norvegicus [14])
